For the assay, the system named is Plasmodium falciparum. Kind of assay: GSK_TCMDC: Inhibition of Plasmodium falciparum 3D7 in whole erythrocytes, using parasite LDH activity as an index of growth. The assay is classed as functional, organism-based. The conditions noted are these: Plasmodium falciparum, 3D7.
On to `O=[N+]([O-])c1cccc(/C=N/Nc2ccnc3ccc(C(F)(F)F)cc23)c1`, for which the XC50 came to 1090 nM.
`CCNc1cc(C(=O)N[C@@H](Cc2ccccc2)[C@H](O)CNC(C)CCCC(C)C)cc(N2CCCS2(=O)=O)c1` (stereo partly specified) had an XC50 of 219 nM.
With `CC1(C)CCC(C)(C)c2c1ccc(C1CCN(CCCCNC(=O)c3ccc(-c4ccc(Cl)cc4)cc3)CC1)c2O`, the XC50 worked out at 477 nM.
Turning to `FC(F)(F)c1cccc(C=NNc2nc3ccccc3[nH]2)c1`, the XC50 is 148 nM.
Take `CCC(C(=O)Nc1ccccc1)n1nc(-c2ccc(C)c(S(=O)(=O)N3CCCCC3)c2)ccc1=O` (stereo unspecified): the XC50 stood at 1090 nM.
The same measure for `CCCCN(CCCC)CCCCNc1c2ccc(Cl)cc2nc2ccc(OC)cc12`: 175 nM; for `Cc1ccoc1C(=O)Nc1cccc(-c2cccc(-c3nc4cccc(C)c4[nH]3)c2)c1`: 675 nM.
`COc1cc(N(C)Cc2cnc3nc(N)nc(N)c3n2)cc(OC)c1OC` displayed an XC50 of 435 nM.
For `CN(C)CCN(Cc1ccccc1-c1ccc(CNCCc2ccccc2)cc1)C(=O)c1ccccc1`, the XC50 was determined as 1700 nM.
In the case of `CCCN1CCN(c2ccccc2NS(=O)(=O)c2ccc(C(=O)Nc3ccc(Cl)cc3)cc2)CC1`, the XC50 turned out to be 1140 nM.
As for `COc1ccc2nccc([C@@H](O)CN3CCC(NCc4nc5c(F)cccc5[nH]4)CC3)c2c1`, the XC50 stood at 467 nM.
With `COc1cc(CNc2ccc(N3CCCC3)cc2)cc(Cl)c1OC`, the XC50 is 700 nM.
The molecule `NC1=NC(CCc2ccccc2)N(c2ccc(Cl)cc2)C(N)=N1` (stereo unspecified) yielded an XC50 of 38 nM.
`CC1(C)N=C(N)N=C(N)N1c1ccc2ccccc2c1` gave an XC50 of 53.8 nM.
In turn, `Cc1noc(C)c1-c1cccc(C(=O)NC2CCN(CCNC(=O)C(c3ccccc3)c3ccccc3)CC2)c1` registered an XC50 of 1220 nM.
`CSCCC(C(=O)O)N1C(=O)c2ccccc2C1=O` (stereo unspecified) displayed an XC50 of 1030 nM.
The molecule `CN1CCC[C@H]1COc1ccc(CN2CC[C@H](NC(=O)c3ccc(Cl)c(Cl)c3)C2)cc1Cl` came in with an XC50 of 1150 nM.
The molecule `Cc1cccc2nc(-c3cccc(-c4ccc(NC(=O)Nc5ccc(Cl)c(Cl)c5)cc4)c3)[nH]c12` displayed an XC50 of 566 nM.
For `Cn1cncc1-c1ccc2ncnc(Nc3ccc(OCc4ccccc4)cc3)c2c1`, the XC50 came out at 1340 nM.
`FC(F)(F)c1cccc(Nc2nc3ccccc3nc2Nc2cccc(C(F)(F)F)c2)c1`: the XC50 stood at 137 nM.
In turn, `CN1CCC(N(C)c2nccc(N3CCN(Cc4cncn4Cc4ccccc4)CC3)n2)CC1` returned an XC50 of 704 nM.
Molecule `N#Cc1cccc(-c2cnc(N)c(-c3nc4cc(S(N)(=O)=O)ccc4[nH]3)c2)c1` registered an XC50 of 644 nM.
In turn, `CCOc1cc(NCCSCc2nc[nH]c2C)nc2ccccc12` came in with an XC50 of 792 nM.
`CCc1c(CCNCCCCCCNCCc2ccc([N+](=O)[O-])cc2)ccc(O)c1O` returned an XC50 of 783 nM.
`CCOc1cc(C(=O)NCc2cccc(C(F)(F)F)c2)ccc1-c1nc2cc(Cl)ccc2[nH]1` gave an XC50 of 977 nM.
`O=C(CC(c1ccccc1)c1ccccc1O)N1CCOCC1` (stereo unspecified) yielded an XC50 of 1520 nM.
As for `CNCCNC(=O)C1Cc2c([nH]c3c(C)cccc23)C(c2ccc(Cl)c(Cl)c2)N1` (stereo unspecified), the figure is 716 nM; as for `O=C(/C=C/c1ccc(Cl)c(Cl)c1)NCCCCCN1CCC(NC(=O)Nc2cccc(Cl)c2)CC1`, 754 nM; as for `CC(=O)Nc1cccc(C(=O)Nc2cccc(-c3ccc(-c4nc5cccc(C)c5[nH]4)s3)c2)c1`, 767 nM.
Molecule `COc1ccc2nccc([C@@H](O)CN3CCC(NCc4cc5cccc6c5n(c4=O)CCC6)CC3)c2c1` gave an XC50 of 861 nM.
`CC(=O)N(C)c1cccc(C(=O)Nc2ccc(-c3cccc(-c4nc5cc(C(F)(F)F)ccc5[nH]4)c3)cc2)c1` had an XC50 of 724 nM.
`CS(=O)(=O)Nc1ccc2[nH]cc(C3CCN(CC4CCC(NC(=O)/C=C/c5ccc(Cl)c(Cl)c5)CC4)CC3)c2c1` (stereo unspecified) came in with an XC50 of 847 nM.
`Cc1ccc(-c2csc(C)n2)c(C)c1`: the XC50 turned out to be 991 nM.
`OC1(c2ccc(Br)cc2)CCN(C2CCN(Cc3ccccc3)CC2)CC1` yielded an XC50 of 597 nM.
Regarding `CC[C@H]1CN2CC[C@H]1C[C@H]2[C@H](O)c1cc(-c2ccccc2C)nc2ccc(OC)cc12`, the XC50 was 195 nM.
As for `CCCCCCOc1ccc(N2C(N)=NC(N)=NC2(C)C)cc1`, the figure is 344 nM; as for `O=C(Cc1ccccc1)NC(Nc1ccc([N+](=O)[O-])cc1)C(Cl)(Cl)Cl` (stereo unspecified), 973 nM; as for `CCc1c(C(=O)NC2CCC(N3CCC(c4ccccc4C)CC3)CC2)[nH]c2ccc(OC)cc12` (stereo unspecified), 808 nM.
As for `COc1ccccc1N1CCN(CCCCNC(=O)c2ccc(NC(=O)c3cc(Cl)cc(Cl)c3)cc2)CC1`, the XC50 is 458 nM.
`CCOC(=O)c1nc(-c2ccccc2)[nH]c1-n1nc(C)cc1C`: the XC50 stood at 686 nM.
For `Cc1cc(N[C@@H](CC(C)C)C(=O)NCCc2ccccc2)nc(NCC2CCCCC2)n1`, the XC50 amounted to 904 nM.
In turn, `CC(CN(C)C)C(=O)Nc1ccc(-c2ccc(-c3nc4ccccc4[nH]3)s2)cc1` (stereo unspecified) came in with an XC50 of 717 nM.
The same measure for `O=C(Cc1cn(-c2ccccc2)nc1-c1ccc(Cl)cc1)Nc1nccs1`: 1200 nM; for `COc1ccc(-c2cc(C(=O)N[C@@H](CC3CCCCC3)C(=O)NCCN3CCCC3)ccc2O)cc1`: 868 nM; for `COc1ccc(CNC(=O)c2cc3c(=O)n4ccccc4nc3n(CCc3ccccc3)c2=N)cc1`: 330 nM.
In turn, `COc1cc2c(c(Cl)c1OC)CCN(Cc1ccccc1)CC2c1ccc(C(N)=O)cc1` (stereo unspecified) registered an XC50 of 848 nM.
Consider `COc1ccc(-c2ccc(S(=O)(=O)Nc3cc4c(cc3OC(C)C)CCNCC4)cc2)cc1`, for which the XC50 was determined as 969 nM.
As for `COc1ccc(C(=O)c2ccc3[nH]cc(C4=CCN(C)CC4)c3c2)cc1`, the figure is 1050 nM.
Regarding `O=C(Nc1cccc(CN2CCCN(Cc3ncc[nH]3)CC2)c1)c1ccc2ccccc2c1`, the XC50 amounted to 632 nM.
`Cc1noc(C)c1-c1cccc(CNCc2ccc(-c3ccc(-c4nc5cc(C(F)(F)F)ccc5[nH]4)cc3)cc2)c1`: the XC50 was determined as 172 nM.
Turning to `CCCCN(CCCC)/C(=N/C(=N)Nc1ccc(Cl)cc1)NCCCCCCN/C(=N\C(=N)Nc1ccc(Cl)cc1)N(CCCC)CCCC`, the XC50 came to 791 nM.
As for `FC(F)(F)c1ccc2[nH]c(-c3ccc(-c4cccc(CNCCN5CCNCC5)c4)cc3)nc2c1`, the figure is 1030 nM.
`CCN(CC)CCN1C(=O)C(O)(c2ccccc2Cl)c2c1cc(C(N)=O)cc2C(F)(F)F` (stereo unspecified) returned an XC50 of 703 nM.
The molecule `CC1CCN(c2nc(C(=O)NCCc3ccc(Cl)c(Cl)c3)c(C(C)C)s2)CC1` gave an XC50 of 1930 nM.
In the case of `CCC(C)CC(=O)Nc1ccc(OC)c(S(=O)(=O)N[C@@H]2CCN(C#N)C2)c1` (stereo partly specified), the XC50 amounted to 1490 nM.
The same measure for `COc1ccccc1-c1ccc2nnc(SCC(=O)Nc3ccc4c(c3)OCCO4)n2n1`: 716 nM; for `Fc1ccc2[nH]c(-c3ccc(-c4ccc(CNCCN5CCNCC5)cc4)s3)nc2c1`: 779 nM; for `Cc1cc(OCCCN2CCC(NS(=O)(=O)c3ccc(C(F)(F)F)cc3)CC2)c2ccccc2n1`: 1220 nM.
As to `COc1ccc(Nc2nccc(N3CCC(NC(=O)Nc4ccc5c(c4)OCO5)C3)n2)cc1` (stereo unspecified), the XC50 turned out to be 599 nM.
Turning to `COc1cc(-c2cc(-c3ccc(OCCN(C)C)cc3)[nH]c2-c2ccncc2)ccc1Cl`, the XC50 was 711 nM.
As for `COc1ccc(CNCc2ccc(F)cc2)cc1-c1ccc(S(=O)(=O)NCCN2CCCC2)cc1`, the figure is 1040 nM; as for `CCOc1cc(C(=O)NCCN2CCCCC2)ccc1-c1nc2cc(Cl)ccc2[nH]1`, 1080 nM.
As for `COc1cc(C=CC(=O)N2CCC(CN3CCC(c4c[nH]c5ccccc45)CC3)CC2)cc(OC)c1`, the XC50 stood at 804 nM.
`COC(=O)c1ccc(CCC(C)NCC(O)c2cccc(Cl)c2)cc1` (stereo unspecified) showed an XC50 of 670 nM.
As for `CC(C)(C)c1ccc(NC(=O)c2ccc(CN3CCCN(Cc4cccc(F)c4)CC3)cc2)cc1`, the XC50 was determined as 1120 nM.
For the molecule `CCCCCC(=O)N1CCOC(CCN2CCc3c(c4ccccc4n3C)C2)(c2ccc(Cl)c(Cl)c2)C1` (stereo unspecified), the XC50 came to 982 nM.
As for `O=C(c1cc(-c2ccco2)n[nH]1)N1CCN(S(=O)(=O)c2ccc(Cl)cc2)CC1`, the figure is 356 nM.
In turn, `CCOC(C(=O)OCC1CCCN1C)(c1ccccc1)c1ccccc1` (stereo unspecified) yielded an XC50 of 863 nM.
The molecule `CC(C)(C)NCCN(Cc1ccc(-c2ccc(C(F)(F)F)cc2)cc1)C(=O)Cn1c(CCc2cccc(F)c2F)nc(=O)c2ccccc21` yielded an XC50 of 764 nM.
As for `Cc1cccc2nc(-c3cccc(-c4ccc(NC(=O)COC(C)C)cc4)c3)[nH]c12`, the XC50 was found to be 1190 nM.
For `COc1ccc2[nH]cc(C3CCN(CCCCCNC(=O)c4ccc(-c5ccccc5)cc4)CC3)c2c1`, the XC50 turned out to be 795 nM.
For the molecule `CCc1c(C)nc(-n2nc(C)cc2NC(=O)C2c3ccccc3Oc3ccccc32)[nH]c1=O`, the XC50 is 952 nM.
`Cc1ccc2ccncc2c1N` returned an XC50 of 697 nM.
`Cc1csc(-c2nc(NCCc3c(C)noc3C)ncc2-c2ccsc2)n1`: the XC50 is 177 nM.
Turning to `Cc1nnc(-c2ccc3ccccc3c2)c2cn(-c3cccc([N+](=O)[O-])c3)nc12`, the XC50 turned out to be 988 nM.
Consider `COc1ccc(C(=O)C2CC2CN2CC=C(c3c[nH]c4ccccc34)CC2)cc1` (stereo unspecified), for which the XC50 was determined as 532 nM.
As for `Cc1c(Cn2ncc(N3CC(C)NC(C)C3)c(Cl)c2=O)cccc1NC(=O)Nc1ccc(-c2ccccc2)cc1` (stereo unspecified), the figure is 596 nM; as for `COc1cccc(-c2nn(C)c3sc(C(=O)NCCN4CCN(c5ccccc5F)CC4)cc23)c1`, 955 nM.
For the molecule `CS(=O)(=O)NCCCNCc1ccc(-c2ccc(-c3nc4cc(F)ccc4[nH]3)cc2)cc1`, the XC50 was 935 nM.
As for `CCCCCCc1ncc(-c2cc3cc(O)c(-c4ccccc4)cc3oc2=O)s1`, the figure is 1240 nM.
`CC(C)CNCc1ccc(-c2ccc(CN(C(=O)Nc3ccccc3)C3CCN(Cc4ccccc4)CC3)cc2)cc1` displayed an XC50 of 680 nM.
Turning to `Cc1ccc(CN2CCC(C(=O)Nc3ccc(-c4cc5ccccc5[nH]4)cc3)CC2)o1`, the XC50 worked out at 1420 nM.
`CCCOc1ccc(OCCCON2C(=N)N=C(N)NC2(C)C)cc1` displayed an XC50 of 3.2 nM.
The molecule `N#Cc1ccccc1S(=O)(=O)N1CCCC(CNC(=O)[C@H](CC2CCCCC2)NC(=O)c2cc3ccccc3s2)C1` (stereo partly specified) registered an XC50 of 515 nM.
In turn, `CS(=O)(=O)N(CC(O)Cn1c2ccc(Cl)cc2c2cc(Cl)ccc21)c1ccccc1` (stereo unspecified) displayed an XC50 of 897 nM.
As for `CN1CCCC(CN2CCN(Cc3cccc(-c4csc(-c5nc6ccccc6[nH]5)c4)c3)CC2)C1` (stereo unspecified), the figure is 414 nM.

The values are drawn from ChEMBL document CHEMBL1157539, “Thousands of chemical starting points for antimalarial lead identification” (Nature, 2010).
